pIC50: −log10 of the molar value. Read-outs that look alike come from different tables or passages of the source.
How the values were obtained:
[1] = biological target: T1, baculovirus-expressed human trkA cytoplasmic domain (Homo sapiens, UniProt P04629); experiment: trkA tyrosine kinase activity inhibition, ELISA-based assay; assay type: biochemical; conditions: for inhibition at 0.3 µM: read-out: trkA (% inhibition @ 300 nM)
T1 construct: baculovirus-expressed human trkA cytoplasmic domain; made in house
Method: Selected isomeric fused pyrrolocarbazole and isoindolone compounds were tested for their ability to inhibit the kinase activity of baculovirus-expressed human trkA cytoplasmic domain using an ELISA-based assay as previously described (Angeles et al, Anal. Biochem. 236: 49-55, 1996). Briefly, the 96-well microtiter plate was coated with substrate solution (recombinant human phospholipase C-γl/glutathione S-transferase fusion protein (Rotin et al., EMBO J., II: 559-567, 1992). Inhibition studies were performed in 100 μl assay mixtures containing 50 mM Hepes, pH 7.4, 40 μM ATP, 10 mM MnCl2, 0.1% BSA; 2% DMSO, and various concentrations of inhibitor. The reaction was initiated by addition of trkA kinase and allowed to proceed for 15 minutes at 37° C. An antibody to phosphotyrosine (UBI) was then added, followed by a secondary enzyme-conjugated antibody, alkaline phosphatase-labelled goat anti-mouse IgG (Bio-Rad). The activity of the bound enzyme was measured via an amplified detection system (Gibco-BRL). Inhibition data were analyzed using the sigmoidal dose-response (variable slope) equation in GraphPad Prism.

[2] = biological target: T2, baculovirus-expressed VEGF receptor (human flk-1, KDR, VEGFR2) kinase domain (Homo sapiens, UniProt P35968); experiment: VEGF receptor kinase activity inhibition, ELISA assay; assay type: biochemical; conditions: for pIC50 / VEGFR kinase (% inhibition @ 300 nM): 40 μM ATP; for pIC50: value printed without parentheses, read-out: VEGFR kinase IC50; for VEGFR kinase (% inhibition @ 300 nM): 300 nM compound, value printed in parentheses
T2 construct: VEGF receptor (human flk-1, KDR, VEGFR2) kinase domain; made in house
Method: Isomeric fused pyrrolocarbazole and isoindolone compounds were examined for their inhibitory effects on the kinase activity of baculovirus-expressed VEGF receptor (human flk-1, KDR, VEGFR2) kinase domain using the procedure described for the trkA kinase ELISA assay described above. The kinase reaction mixture, consisting of 50 mM Hepes, pH 7.4, 40 μM ATP, 10 mM MnCl2, 0.1% BSA, 2% DMSO, and various concentrations of inhibitor, was transferred to PLC-γ/GST-coated plates. VEGFR kinase was added and the reaction was allowed to proceed for 15 min at 37° C. Detection of phosphorylated product was accomplished by addition of anti-phosphotyrosine antibody (UBI). A secondary enzyme-conjugated antibody was delivered to capture the antibody-phosphorylated PLC-γ/GST complex. The activity of the bound enzyme was measured via an amplified detection system (Gibco-BRL). Inhibition data were analyzed using the sigmoidal dose-response (variable slope) equation in GraphPad Prism Results are summarized in Table 6.

[3] = biological target: T3, baculovirus-expressed PDGFβ receptor kinase domain (Homo sapiens, UniProt P09619); experiment: PDGF receptor kinase activity inhibition, ELISA assay; assay type: biochemical; conditions: for inhibition at 1 µM: read-out: PDGFRβ (% inhibition @ 1 μM)
T3 construct: baculovirus-expressed PDGFβ receptor kinase domain; made in house
Method: Isomeric fused pyrrolocarbazole and isoindolone compounds were examined for their inhibitory effects on the kinase activity of baculovirus-expressed PDGFβ receptor kinase domain using the trkA kinase ELISA described above. Assays were performed in substrate (PLC-γ/GST)-coated 96-well microtiter plates. Each 100-μl reaction mixture contained 50 mM HEPES, pH 7.4, 20 μM ATP, 10 mM MnCl2, 0.1% BSA, 2% DMSO, and various concentrations of inhibitor. The reaction was initiated by addition of prephosphorylated recombinant human enzyme (10 ng/ml PDGFβ) and allowed to proceed for 15 minutes at 37° C. The prephosphorylated enzyme was prepared prior to use by incubation of the kinase in buffer containing 20 μM ATP and 10 mM MnCl2 for 1 hour at 4 C. Detection of phosphorylated product was done by adding horseradish peroxidase (HRP)-conjugated anti-phosphotyrosine antibody (UBI). The HRP substrate solution containing 3,3′-5,5′-tetramethylbenzidine and hydrogen peroxide was later added and the plates were incubated for 10 minutes at room temperature. The reaction was quenched with acid and the resulting absorbance was read at 450 nm using a Microplate Bio-kinetics Reader (Bio-Tek Instrument EL 312e). Inhibition data were analyzed using the sigmoidal dose-response (variable slope) equation in GraphPad Prism.

[4] = 300 nM compound, 40 μM ATP, value printed in parentheses
[5] = 1 μM compound, 20 μM ATP, value printed in parentheses

T2 sequence (P35968 834-1162 limits assumed): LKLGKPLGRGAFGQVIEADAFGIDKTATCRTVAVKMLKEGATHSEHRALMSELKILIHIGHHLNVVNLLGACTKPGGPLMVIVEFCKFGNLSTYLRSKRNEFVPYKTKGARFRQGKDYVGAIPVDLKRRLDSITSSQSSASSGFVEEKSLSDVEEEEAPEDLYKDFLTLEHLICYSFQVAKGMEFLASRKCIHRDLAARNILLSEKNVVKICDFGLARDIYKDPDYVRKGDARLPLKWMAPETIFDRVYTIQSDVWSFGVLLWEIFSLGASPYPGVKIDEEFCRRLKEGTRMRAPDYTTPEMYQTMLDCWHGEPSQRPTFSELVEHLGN
T1 sequence (P04629 440-796 limits assumed): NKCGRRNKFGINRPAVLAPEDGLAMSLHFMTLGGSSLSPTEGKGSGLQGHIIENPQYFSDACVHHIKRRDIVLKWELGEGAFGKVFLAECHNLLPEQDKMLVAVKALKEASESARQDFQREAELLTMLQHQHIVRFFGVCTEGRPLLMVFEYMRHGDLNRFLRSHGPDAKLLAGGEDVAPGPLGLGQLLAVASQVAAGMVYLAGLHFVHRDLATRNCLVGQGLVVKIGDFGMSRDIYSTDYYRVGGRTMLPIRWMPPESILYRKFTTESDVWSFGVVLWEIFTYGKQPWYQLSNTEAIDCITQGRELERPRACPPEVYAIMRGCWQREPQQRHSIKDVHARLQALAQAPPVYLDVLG
T3 sequence (P09619 600-962 limits assumed): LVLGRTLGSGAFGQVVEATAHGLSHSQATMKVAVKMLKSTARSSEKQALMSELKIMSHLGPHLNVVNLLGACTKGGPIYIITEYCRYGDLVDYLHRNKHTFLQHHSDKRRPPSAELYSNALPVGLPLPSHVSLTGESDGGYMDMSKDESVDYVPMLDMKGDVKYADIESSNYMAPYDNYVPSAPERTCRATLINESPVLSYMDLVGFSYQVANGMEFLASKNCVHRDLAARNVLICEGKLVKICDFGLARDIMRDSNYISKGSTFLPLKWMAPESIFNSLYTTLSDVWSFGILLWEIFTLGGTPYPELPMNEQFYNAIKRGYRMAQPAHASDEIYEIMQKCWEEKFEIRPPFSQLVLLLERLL

## O=C1NCc2c3c(c4c(c21)c1ccccc1n4CCO)-c1ccccc1CC3 [Compound X-4]
[1]; [4]
  inhibition at 0.3 µM: 15%
[2]
  pIC50: 6.86

## O=C1NC(=O)c2c1c1c(c3[nH]c4ccccc4c23)-c2ccccc2C1 [IV-1]
[1]; [4]
  inhibition at 0.3 µM: 0%
[2]
  pIC50: 7.15
[3]; [5]
  inhibition at 1 µM: 6%
other
  melting point: > 300 °C

## O=c1[nH]c(=O)c2c1c1c(=O)c3ccccc3c1c1[nH]c3ccccc3c12 [IV-2]
[1]; [4]
  inhibition at 0.3 µM: 2%
[2]
  pIC50: 6.06
[3]; [5]
  inhibition at 1 µM: 17%

## Cn1c2ccccc2c2c3c(c4c(c21)-c1ccccc1C4)C(=O)NC3=O [IV-3]
[1]; [4]
  inhibition at 0.3 µM: 18%
[2]
  pIC50: 6.48
[3]; [5]
  inhibition at 1 µM: 0%
other
  melting point: > 262 °C

## O=C1NC(=O)c2c1c1c(c3[nH]c4ccccc4c23)-c2ccccc2CC1 [IV-5]
[1]; [4]
  trkA (% inhibition @ 300 nM): (14) %
[2]
  pIC50: 6.80
[3]; [5]
  PDGFRβ (% inhibition @ 1 μM): (26) %

## COc1ccc2[nH]c3c4c(c5c(c3c2c1)C(=O)NC5=O)CCc1ccccc1-4 [IV-6]
[2]; read-out: VEGFR kinase (% inhibition @ 300 nM)
  inhibition at 0.3 µM: 14%

## O=C1NC(=O)c2c1c1sc3ccccc3c1c1[nH]c3ccccc3c21 [IV-10]
[1]; [4]
  inhibition at 0.3 µM: 6%
[2]
  pIC50: 5.27
[3]; [5]
  inhibition at 1 µM: 11%

## O=C1NC(=O)c2c1c1c(c3[nH]c4ccccc4c23)-c2ccccc2OC1 [IV-11]
[1]; [4]
  inhibition at 0.3 µM: 4%
[2]
  pIC50: 6.26
[3]; [5]
  inhibition at 1 µM: 6%

## COCC1c2ccccc2-c2c1c1c(c3c2[nH]c2ccccc23)C(=O)NC1=O (stereo not shown) [IV-12]
[2]
  VEGFR kinase (% inhibition @ 300 nM): (19) %

## O=C1NC(=O)c2c1c1c(c3[nH]c4ccccc4c23)-c2ccccc2C1C(O)c1cccnc1 (stereo not shown) [IV-13]
[2]
  VEGFR kinase (% inhibition @ 300 nM): (8) %

## O=C1NC(=O)c2c1c1c(c3[nH]c4ccccc4c23)-c2ccccc2C1CO (stereo not shown) [IV-15]
[2]
  VEGFR kinase (% inhibition @ 300 nM): (7) %

## O=C1NC(=O)c2c1c1c(c3[nH]c4ccccc4c23)-c2ccccc2C1c1cccs1 (stereo not shown) [IV-16]
[2]
  VEGFR kinase (% inhibition @ 300 nM): (14) %

## COCCOCC1c2ccccc2-c2c1c1c(c3c2[nH]c2ccccc23)C(=O)NC1=O (stereo not shown) [IV-17]
[2]
  VEGFR kinase (% inhibition @ 300 nM): (3) %

## O=C1NC(=O)c2c1c1c(c3[nH]c4ccccc4c23)-c2ccccc2C1C(O)c1ccncc1 (stereo not shown) [IV-18]
[2]
  VEGFR kinase (% inhibition @ 300 nM): (8) %

## N#CCCn1c2ccccc2c2c3c(c4c(c21)-c1ccccc1CC4)C(=O)NC3=O [IV-19]
[2]
  VEGFR kinase (% inhibition @ 300 nM): (4) %

## N#CCCCn1c2ccccc2c2c3c(c4c(c21)-c1ccccc1CC4)C(=O)NC3=O [IV-20]
[2]
  VEGFR kinase (% inhibition @ 300 nM): (11) %

## CCOC(=O)CCn1c2ccccc2c2c3c(c4c(c21)-c1ccccc1CC4)C(=O)NC3=O [IV-21]
[2]
  VEGFR kinase (% inhibition @ 300 nM): (7) %

## O=C(O)CCn1c2ccccc2c2c3c(c4c(c21)-c1ccccc1CC4)C(=O)NC3=O [IV-22]
[2]
  VEGFR kinase (% inhibition @ 300 nM): (8) %

## NCCCn1c2ccccc2c2c3c(c4c(c21)-c1ccccc1CC4)C(=O)NC3=O [IV-23]
[2]
  VEGFR kinase (% inhibition @ 300 nM): (0) %

## CS(=O)(=O)NCCCn1c2ccccc2c2c3c(c4c(c21)-c1ccccc1CC4)C(=O)NC3=O [IV-24]
[2]
  VEGFR kinase (% inhibition @ 300 nM): (0) %

## CC(=O)NCCCn1c2ccccc2c2c3c(c4c(c21)-c1ccccc1CC4)C(=O)NC3=O [IV-25]
[2]
  VEGFR kinase (% inhibition @ 300 nM): (0) %

## CNC(=S)NCCCn1c2ccccc2c2c3c(c4c(c21)-c1ccccc1CC4)C(=O)NC3=O [IV-26]
[2]
  VEGFR kinase (% inhibition @ 300 nM): (10) %

## O=C(NCCCn1c2ccccc2c2c3c(c4c(c21)-c1ccccc1CC4)C(=O)NC3=O)Nc1ccccc1 [IV-27]
[2]
  VEGFR kinase (% inhibition @ 300 nM): (5) %

## CC(C)(C)OC(=O)N1CCCC1C(=O)NCCCn1c2ccccc2c2c3c(c4c(c21)-c1ccccc1CC4)C(=O)NC3=O (stereo not shown) [IV-29]
[2]
  VEGFR kinase (% inhibition @ 300 nM): (1) %

## O=C1NC(=O)c2c1c1c(c3c2c2ccccc2n3CCCNC(=O)C2CCCN2)-c2ccccc2CC1 (stereo not shown) [IV-30]
[2]
  VEGFR kinase (% inhibition @ 300 nM): (1) %

## CS(=O)(=O)N1CCCC1C(=O)NCCCn1c2ccccc2c2c3c(c4c(c21)-c1ccccc1CC4)C(=O)NC3=O (stereo not shown) [IV-31]
[2]
  VEGFR kinase (% inhibition @ 300 nM): (10) %

## CS(=O)(=O)NCc1ccc2[nH]c3c4c(c5c(c3c2c1)C(=O)NC5=O)CCc1ccccc1-4 [IV-34]
[2]
  VEGFR kinase (% inhibition @ 300 nM): (54) %

## CNC(=S)NCc1ccc2[nH]c3c4c(c5c(c3c2c1)C(=O)NC5=O)CCc1ccccc1-4 [IV-35]
[2]
  VEGFR kinase (% inhibition @ 300 nM): 43%
  pIC50: 6.50

## CC(C)(C)OC(=O)C=Cc1ccc2[nH]c3c4c(c5c(c3c2c1)C(=O)NC5=O)CCc1ccccc1-4 [IV-36]
[2]
  VEGFR kinase (% inhibition @ 300 nM): (17) %

## O=C(O)C=Cc1ccc2[nH]c3c4c(c5c(c3c2c1)C(=O)NC5=O)CCc1ccccc1-4 [IV-37]
[2]
  VEGFR kinase (% inhibition @ 300 nM): (11) %

## CC(C)(C)OC(=O)CCc1ccc2[nH]c3c4c(c5c(c3c2c1)C(=O)NC5=O)CCc1ccccc1-4 [IV-38]
[2]
  VEGFR kinase (% inhibition @ 300 nM): (5) %

## O=C1NC(=O)c2c1c1c(c3[nH]c4ccc(C=Cc5ccccn5)cc4c23)-c2ccccc2CC1 [IV-39]
[2]
  VEGFR kinase (% inhibition @ 300 nM): (8) %

## O=C(O)CCc1ccc2[nH]c3c4c(c5c(c3c2c1)C(=O)NC5=O)CCc1ccccc1-4 [IV-40]
[2]
  VEGFR kinase (% inhibition @ 300 nM): (10) %

## O=C1NC(=O)c2c1c1c(c3c2c2ccccc2n3CCCOCc2ccccc2)-c2ccccc2CC1 [IV-41]
[2]
  VEGFR kinase (% inhibition @ 300 nM): (34) %

## O=C1NC(=O)c2c1c1c(c3c2c2ccccc2n3CCCO)-c2ccccc2CC1 [IV-42]
[2]
  VEGFR kinase (% inhibition @ 300 nM): (42) %

## N#CC=Cc1ccc2[nH]c3c4c(c5c(c3c2c1)C(=O)NC5=O)CCc1ccccc1-4 [IV-43]
[2]
  VEGFR kinase (% inhibition @ 300 nM): (8) %

## N#Cc1ccc2c(c1)c1c3c(c4c(c1n2CCCOCc1ccccc1)-c1ccccc1CC4)C(=O)NC3=O [IV-44]
[2]
  VEGFR kinase (% inhibition @ 300 nM): (3) %

## O=C1NCc2c1c1c(c3[nH]c4ccccc4c23)-c2ccccc2C1 [IX-1]
[1]; [4]
  trkA (% inhibition @ 300 nM): (9) %
[2]
  VEGFR kinase (% inhibition @ 300 nM): (10) %
[3]; [5]
  PDGFRβ (% inhibition @ 1 μM): (23) %

## O=C1NCc2c1c1c(c3[nH]c4ccccc4c23)-c2ccccc2CC1 [IX-2]
[1]; [4]
  trkA (% inhibition @ 300 nM): (9) %
[2]
  pIC50: 5.06
[3]; [5]
  PDGFRβ (% inhibition @ 1 μM): (8) %

## O=C1NC(=O)c2c1c1c(c3[nH]c4ncccc4c23)-c2ccccc2CC1 [XIII]
[2]
  pIC50: 5.08
[3]; [5]
  inhibition at 1 µM: 10%

## O=C1NC(=O)c2c1c1ccc3sccc3c1c1[nH]c3ccccc3c21 [XVII]
[1]
  inhibition at 0.3 µM: 10%
[2]
  pIC50: 6.10
[3]
  inhibition at 1 µM: 24%

— US7291732B2, “Isomeric fused pyrrolocarbazoles and isoindolones” (Cephalon, Inc., priority 1999, dated 2007)
